The results in this text go back to patent publication US20200164060A1, “HERPES SIMPLEX VIRUS VACCINE EPITOPES SP[…] TISSUE RESIDENT MEMORY T CELLS” (priority 2017, published 2020).

In the assay the test system is biopsy-derived HSV-2-specific CD4 TRM. The assay is described as follows: single peptide test with biopsy-derived HSV-2-specific CD4 TRM, IFN-γ secretion. The settings on record: peptide at 1 μg/ml; HLA-expressing cells as antigen presenting cells; media control gave no response. It counts as cell-based, human. An excerpt:
FIG. 14. CD4 epitopes: peptide pools→singles. For this example, biopsy-derived cells recognize Cos7 co-transfected with the combination of a subject HLA molecule and HSV-2 UL19 gene. A rectangular matrix of peptides covering UL19 was created and row and column pools were made as indicated on the X axis of the top graph. Only one row pool and one column pool gave a positive proliferative response using the assay described in FIG. 13. The peptide at the intersection of the positive row and column pools, UL19 305-319 (SEQ ID NO: 14), was tested at 1 μg/ml using HLA-expressing cells as antigen presenting cells and biopsy-derived HSV-2-specific CD4 TRM as responder cells. The readout was IFN-γ secretion, as shown in the bottom graphs.
The technology used to determine the fine peptide specificity of biopsy-derived CD4 T cells that recognize HSV-2 has been described in Johnston, et al., Journal of Virology 88, 4921-4931 (2014). In brief, every HSV-2 was expressed. […] T cell activation was detected by proliferation or IFN-γ secretion assays. Once the identity of reactive HSV-2 proteins were determined, peptides from within that protein were tested in repeat assays as described in Johnston, et al., Journal of Virology 88, 4921-4931, (2014). In some cases, dose-response assays were conducted as described in Jing, et al., Journal of Immunology 196, 2205-2218, (2016). […]

As for TYGEMVLNGANLVTA [SEQ ID NO: 14], the “IFN-γ response from the biopsy cells” value is “elicited an IFN-γ response”.
